Like-named read-outs stand apart in the source and are kept apart here.

Data set [1] addresses TLX. The conditions noted are these: cited from earlier work.
Data set [2] deals with TLX. The conditions noted are these: read-out: EC50 TLX activation; cellular reporter gene assay; cited from earlier work.
The subject of data set [3] is TLX. The conditions noted are these: cited from earlier work. This is another data set of the same source.
For data set [4], the system named is nuclear receptors. Description: Selectivity profiling in Gal4-hybrid reporter gene assay panel. The data set is classed as cell-based, human. The conditions noted are these: at active concentration. (In general: Reporter assays use an easily measured gene product as a stand-in for the process of interest.)
The subject of data set [5] is COS-7 cells. Description: Multiplex toxicity assay. The data set is classed as cell-based. The conditions noted are these: 24 h, at active concentration. As for the experimental part:
COS-7 cells (DSMZ #ACC 60) were cultured at 37°C and 5% CO2 in DMEM high glucose medium supplemented with sodium pyruvate (1 mM), penicillin (100 U/mL), streptomycin (100 µg/mL), and 10% fetal calf serum (FCS). After aspirating the wells, the cells were seeded at 1x10^5 cells per well in complete culture medium. […] Each sample was prepared in at least 4 biologically independent replicates. After incubation for 24 h, the wells were aspirated and incubated for 30 min with stimulation medium containing 1 µM NucView® 405 fluorogenic caspase-3 substrate (#10405, Biotium, Fremont, USA) and Live-or-Dye Nuc-Fix Red (0.05x, Biotium, Inc., Fremont, CA, 1691 USA) to detect apoptosis and necrosis, respectively. After incubation, a total of 6 fluorescence images per well at 10x magnification were taken to detect NucView®-positive (Ex: 381–400 nm, Em: 414–450 nm) and Live-or-Dye-positive cells (Ex: 543−566 nm, Em: 580−611 nm) using on a Tecan Spark Cyto (Tecan Group AG). Reference readings for background correction and detection of auto-fluorescence were taken at 414–450 nm prior to staining. Thereafter, wells were aspirated, the cells were incubated for 3 h with 90 µL culture medium (0.2% FCS) and 10 µL Cell Counting Kit-8 solution (CCK-8, MedChem Express #HY-K0301), and absorbance was measured at 1, 2, and 3h of incubation at 450 nm on a Tecan Spark Cyto to assess metabolic activity of the cells. Before drug administration, after the first medium exchange, 24 h after drug administration, and after fluorescence imaging cell confluence was assessed using the Tecan Spark Cyto, to account for changes in cell confluence due to drug administration and cell handling. The number of apoptotic cells, metabolic activity, and changes in cell confluence in response to drug treatment were all normalized to the vehicle control of each biological replicate individually.

For data set [6], the target named is T1, TLX (Homo sapiens, UniProt Q9Y466).
T1 construct: encoding the hinge region and the LBD of the canonical isoform of the respective human nuclear receptors; expressed in transfected cells; host or cells: HEK293T
T1 sequence (Q9Y466 155-383 limits assumed): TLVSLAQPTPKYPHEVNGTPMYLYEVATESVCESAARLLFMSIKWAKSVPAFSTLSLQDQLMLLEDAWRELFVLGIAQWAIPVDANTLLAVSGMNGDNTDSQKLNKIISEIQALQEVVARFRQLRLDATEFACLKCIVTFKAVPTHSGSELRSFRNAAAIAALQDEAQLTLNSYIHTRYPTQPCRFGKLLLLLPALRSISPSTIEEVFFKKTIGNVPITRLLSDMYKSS
Description: Gal4-hybrid reporter gene assay TLX. The class given is cell-based. The conditions noted are these: selected test concentration (Figure 3).

Data set [7] concerns adipocyte-derived stem cells (ASC). Description: Adipogenesis assay (ASC differentiation, Oil Red O). The data set is classed as cell-based. The conditions noted are these: 18 days. The text has this:
Using the small collection of NR2 modulators with sufficient reproducible on-target activity and selectivity (6, 7, 9, 11, 12, 13, 19, 21, 22, 23, 25), we next explored their application as a chemogenomics set.[161] To probe the potential of the collection to link phenotypic effects and target in a complex cellular setting, we determined compound effects on the differentiation of adipocyte-derived stem cells (ASC). Under cyclic treatment with insulin, isobutylmethylxanthine, dexamethasone and the PPARγ agonist pioglitazone,[162] these cells develop into adipocytes and accumulate large amounts of fat. However, adipogenesis is orchestrated by many transcription factors[163] and could potentially involve a role of NR2 receptors. […] There was no uniform effect of RXR modulators on fat deposition in adipocytes, possibly due to diverse off-targets of 6 and 11. […] Among TLX ligands the agonist 19 increased the amount of fat and lipid particle size, pointing to enhanced adipogenesis. The inverse TLX agonist 21 had no effect. PNR ligand effects in the adipogenesis model were generally weak.
Differentiation experiments of ASC52telo, hTERT cells (ATCC® SCRC-4000™) were conducted according to a previously described procedure.[162] In brief, the cells were grown in DMEM high-glucose medium supplemented with 10% fetal calf serum, sodium pyruvate (1 mM), penicillin (100 U/mL), and streptomycin (100 μg/mL) at 37 °C and 5% CO2. The cells were seeded in standard culture medium at a density of 5x10^4 cells per well in 96-well plates. After adherence overnight, cells were incubated with differentiation medium, composed of standard culture medium supplemented with human insulin (10 µg/mL, #I3536, Merck KgaA, Darmstadt, Germany), dexamethasone (1 µM, #D4902, Merck KgaA, Darmstadt, Germany,), isobutylmethylxanthine (0.5 mM, #I5879, Merck KgaA, Darmstadt, Germany), DMSO (final concentration 0.1%) and the respective test compounds or pioglitazone at 1 µM. The cells were kept in a differentiation medium for 48-72 h followed by a 24 h incubation with standard culture medium supplemented with 10 µg/mL insulin only. This cycle was repeated five times accounting for a total differentiation time of 18 days. The indicated test compounds at 0.1% DMSO or 0.1% DMSO alone as vehicle control were supplemented freshly with every medium exchange. After the 18-day differentiation procedure and test compound treatment, the cells were washed with phosphate buffered saline (PBS) once and fixed with formalin (10%, stabilized with methanol, 100 µL per well, #15071, Morphisto GmbH, Offenbach am Main, Germany) for 15 min at room temperature. The fixing solution was aspirated, and the fixed cells were washed twice with 50% ethanol solution with the second wash step incubating for 15 min at room temperature to equilibrate the specimens for staining. Oil Red O (#O0625, Merck KgaA, Darmstadt, Germany) was prepared at 0.5% (w/v) in 50% ethanol (v/v) and 5% salicylic acid (w/v), filtered with grade 595 Whatman® filter paper (#311611, Schleicher & Schuell GmbH, London, U.K.) and a 0.2 µm syringe filter (FP 30/0,2 CA-S, #10462200, Schleicher & Schuell GmbH, London, U.K.). Upon equilibration, specimens were incubated with 100 µL of 0.5% Oil Red O solution for 45 min at room temperature before the staining solution was aspirated and the wells were washed once with 50% (v/v) ethanol solution and three times with ddH2O. Specimens were kept in ddH2O for subsequent analysis. For each well, two pictures were taken at a 4x magnification using a Motic®AE31E inverted microscope and a Moticam 1080 (Motic Hong Kong Ltd.). Images were corrected for skewed illumination, Oil Red O crystal precipitates were identified and removed, and the resulting processed pictures were dichromized to extract gray values from the red channel using CellProfiler (Version 4.2.6). […]

Data set [8] concerns TLX expression. The following applies: cited from earlier work.
Data set [9] has as its system full-length TLX. The conditions noted are these: reporter gene assay; cited from earlier work.
In data set [10] the target is TLX LBD. The conditions noted are these: ITC; cited from earlier work.
Data set [11] deals with TLX-regulated genes. The following applies: cited from earlier work.
For data set [12], the system named is RXRβ. The following applies: cited from earlier work.
The subject of data set [13] is RXRγ. The conditions noted are these: cited from earlier work; for EC50: reporter gene assay.
Data set [14] concerns the target T2, RXRα (Homo sapiens, UniProt P19793).
T2 sequence (P19793 227-458 limits assumed): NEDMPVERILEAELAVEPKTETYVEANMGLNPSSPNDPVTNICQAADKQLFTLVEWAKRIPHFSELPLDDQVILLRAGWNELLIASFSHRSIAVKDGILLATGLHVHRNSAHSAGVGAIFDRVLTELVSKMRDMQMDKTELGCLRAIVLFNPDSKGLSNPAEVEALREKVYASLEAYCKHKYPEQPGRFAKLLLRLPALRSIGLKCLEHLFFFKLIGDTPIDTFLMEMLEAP
In words: Gal4-hybrid reporter gene assay RXRα.

In data set [15] the target is T3, HNF4α (Homo sapiens, UniProt P41235).
T3 sequence (P41235 147-377 limits assumed): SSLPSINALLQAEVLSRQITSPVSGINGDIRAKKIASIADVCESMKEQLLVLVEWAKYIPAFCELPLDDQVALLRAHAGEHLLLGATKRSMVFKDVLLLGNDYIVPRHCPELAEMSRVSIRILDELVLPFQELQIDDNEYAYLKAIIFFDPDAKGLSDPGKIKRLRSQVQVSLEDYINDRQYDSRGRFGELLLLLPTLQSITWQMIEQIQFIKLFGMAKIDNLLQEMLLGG
Description: Gal4-hybrid reporter gene assay HNF4α. The following applies: 30 µM, HEK293T.

Data set [16] deals with human insulin promoter. The following applies: insulin promoter assay; cited from earlier work.
Data set [17] concerns RXRα. The following applies: cited from earlier work; for EC50: reporter gene assay.
Data set [18] deals with fructose-1,6-bisphosphatase 1 (FBP1). Also noted: method as in PMID 33114319. The conditions noted are these: HepG2 cells; cited from earlier work.
[19] abbreviates: reporter gene assays, read-out: IC50 (counteracting TLX repressor activity).
[20] abbreviates: reporter gene assay, read-out: RXRβ cellular activity/potency.
Where [21] appears, read: read-out: RXRγ cellular activity/potency.

On to `CC(C)c1c(CN(C)C(C)Cc2ccccc2)n(C)n(-c2ccccc2)c1=O` (stereo not shown) [compound 14], for which the Kd (commonly the free concentration of one partner at which half of the binding sites on the other are occupied at equilibrium, for simple one-to-one binding) in data set [1] was 6600 nM. Further, in data set [2], the EC50 was 9200 nM.
In the case of `Cn1c(=O)[nH]c2nc[nH]c2c1=O` [1-methylxantine], in data set [3] (setting [19]), the IC50 is 9000 nM.
For `Cn1c(=O)c2[nH]c(-c3ccccc3)nc2n(C)c1=O` [compound 21, 8-Phenyl-theophylline], the “selectivity over other nuclear receptors” value in data set [4] is “selective over other nuclear receptors”. In data set [5], the cytotoxicity entry is listed as “non-toxic”. The TLX modulation entry in data set [6] is listed as “inverse agonism”. In data set [7], the “Oil red O positive area (amount of fat)” value is listed as “no effect” and the “fat droplet (particle) size” value is “no effect”.
On to `CCCCOc1cc(C(=O)Nc2cc(-n3cnc(C)c3)cc(C(F)(F)F)c2)c2ccccc2n1` [compound 19], for which the “selectivity over other nuclear receptors” value in [4] is “selective over other nuclear receptors”. Moreover, the TLX expression levels result in data set [8] is reported as “no effect”. In addition, the cytotoxicity entry in data set [5] is “non-toxic”. Also, the TLX modulation result in data set [6] is listed as “TLX activation”. In addition, in [7], the “Oil red O positive area (amount of fat)” value is “increased” and the “fat droplet (particle) size” value is listed as “increased”. Further, the EC50 in data set [3] (read-out: Gal4-TLX EC50) is 250 nM. The IC50 in data set [3] (reporter gene assay, read-out: IC50 (first value of cell)) was 250 nM. Further, the EC50 in data set [9] was 700 nM. In addition, the Kd in data set [10] was 500 nM. In data set [11], the SIRT1 expression entry was “induced SIRT1 expression”.
Consider `Cc1cc2c(cc1C1(c3ccc(C(=O)O)cn3)CC1)C(C)(C)CCC2(C)C` [compound 10], for which the EC50 was […] in [12] (setting [20]) and […] in data set [13] (setting [21]).
As to `CCCCCOc1cc2c(cc1-c1cc(/C=C/C(=O)O)ccc1O)C(C)(C)CCC2(C)C` [compound 12], the IC50 in data set [12] (reporter gene assay, no precise value reported, read-out: RXRb cellular activity/potency (antagonist)) is approximately 50 nM. In addition, in [14] (1 µM, coincubation with bexarotene), the “effect on bexarotene-induced RXR activation” value is on record as “robustly blocked”.
Turning to `CCN(CCCc1ccccc1)CCCc1ccccc1` [compound 3, alverine], the “effects on HNF4 activity” value in data set [15] is given as “no effects”. For the same compound, the EC50 in data set [16] was 3500 to 6800 nM.
As to `CC1=C2[C@H](/C=C(\C)C(=O)O)CC[C@@H](C)[C@H]2CC1` [compound 9, Valerenic acid], in data set [12], the RXRβ fold activation is reported as 69 fold act. The EC50 in data set [12] (reporter gene assay, read-out: RXRβ EC50) is 5200 nM; in data set [13] (read-out: RXRγ EC50), 43000 nM; in data set [17] (read-out: RXRα EC50), 27000 nM. Moreover, the RXRγ fold activation in data set [13] was 4 fold act. In [14] (10 µM), the RXRα activation entry is on record as “weak RXRα activation”. In addition, the RXRα fold activation in [17] is given as 9 fold act.
For `Cn1c(=O)c2[nH]c(-c3ccccc3Cl)nc2n(C)c1=O` [compound 20, 8-(2-chlorophenyl)-theophylline], the IC50 in data set [3] (setting [19]) is 500 nM. In addition, in data set [10], the Kd was 800 nM.
For the compound `O=C(O)c1cc(-c2ccccc2)ccc1O` [compound 4], the “expression of HNF4 target gene FBP1” value in [18] was “diminished expression”.
For `CC(C)NCC(O)COc1cccc2ccccc12` (stereo not shown) [compound 18, propranolol], the “TLX-regulated SIRT1 and PTEN/TET3 expression” value in data set [11] (qRT-PCR) is listed as “modulated”.
For `CC(Cc1cccc(C(F)(F)F)c1)NCCOC(=O)c1ccccc1` (stereo not shown) [compound 2, benfluorex], in data set [15], the “effects on HNF4 activity” value is reported as “no effects”. Also, the EC50 in data set [16] is 24400 nM.
In the case of `O=C(O)[C@@H]1C[C@H]1c1nc(-c2ccccc2)c(-c2cc(C(F)(F)F)cc(C(F)(F)F)c2)o1` [compound 7], the EC50 was 1.4 nM in [12] (setting [20]), 4 nM in data set [13] (setting [21]) and 5 nM in data set [17] (read-out: RXRα cellular activity/potency). In addition, in data set [7], the “Oil red O positive area (amount of fat)” value is on record as “affected neither”. In addition, the “fat droplet (particle) size” value in data set [7] is given as “affected neither”.
